One assay has as its target PI3Kdelta (Homo sapiens (Human), UniProt O00329). Description: HTRF PI3K biochemical assay, delta isoform. The note with it: 0.3 nM enzyme, 100 uM ATP, 5 uM PIP2, form screened: Neutral. The method in brief:
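0.3 nM PI3Kδ, pre-incubated 15 min at RT with compound (10-point 3-fold series), then reacted 1 h at RT with 100 uM ATP and 5 uM PIP2. After EDTA stop, PIP3 product detected by HTRF competition (GST-GRP1-PH, biotin-PIP3, Eu anti-GST, SA-APC), read 665/620 nm after 1 h.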

In another assay the target is PI3Kalpha (Homo sapiens (Human), UniProt P42336). Description: HTRF PI3K biochemical assay, alpha isoform (selectivity versus PI3Kalpha). The note with it: relative ratio (PI3K-alpha IC50 value/PI3K-delta IC50 value); form screened: Neutral. The method in brief:
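Uses recombinant PI3Kalpha at 0.5 nM with 100 uM ATP and 5 uM PIP2, after a 15 min RT compound pre-incubation and a 1 h RT reaction. PIP3 product displaces biotin-PIP3 from GST-GRP1 PH domain, read as HTRF 665/620 ratio. IC50 from a 10-point dose response, corrected via a PIP3 standard curve.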

Bounds are passed on as bounds.

PI3Kdelta, sequence (O00329 whole entry, canonical isoform): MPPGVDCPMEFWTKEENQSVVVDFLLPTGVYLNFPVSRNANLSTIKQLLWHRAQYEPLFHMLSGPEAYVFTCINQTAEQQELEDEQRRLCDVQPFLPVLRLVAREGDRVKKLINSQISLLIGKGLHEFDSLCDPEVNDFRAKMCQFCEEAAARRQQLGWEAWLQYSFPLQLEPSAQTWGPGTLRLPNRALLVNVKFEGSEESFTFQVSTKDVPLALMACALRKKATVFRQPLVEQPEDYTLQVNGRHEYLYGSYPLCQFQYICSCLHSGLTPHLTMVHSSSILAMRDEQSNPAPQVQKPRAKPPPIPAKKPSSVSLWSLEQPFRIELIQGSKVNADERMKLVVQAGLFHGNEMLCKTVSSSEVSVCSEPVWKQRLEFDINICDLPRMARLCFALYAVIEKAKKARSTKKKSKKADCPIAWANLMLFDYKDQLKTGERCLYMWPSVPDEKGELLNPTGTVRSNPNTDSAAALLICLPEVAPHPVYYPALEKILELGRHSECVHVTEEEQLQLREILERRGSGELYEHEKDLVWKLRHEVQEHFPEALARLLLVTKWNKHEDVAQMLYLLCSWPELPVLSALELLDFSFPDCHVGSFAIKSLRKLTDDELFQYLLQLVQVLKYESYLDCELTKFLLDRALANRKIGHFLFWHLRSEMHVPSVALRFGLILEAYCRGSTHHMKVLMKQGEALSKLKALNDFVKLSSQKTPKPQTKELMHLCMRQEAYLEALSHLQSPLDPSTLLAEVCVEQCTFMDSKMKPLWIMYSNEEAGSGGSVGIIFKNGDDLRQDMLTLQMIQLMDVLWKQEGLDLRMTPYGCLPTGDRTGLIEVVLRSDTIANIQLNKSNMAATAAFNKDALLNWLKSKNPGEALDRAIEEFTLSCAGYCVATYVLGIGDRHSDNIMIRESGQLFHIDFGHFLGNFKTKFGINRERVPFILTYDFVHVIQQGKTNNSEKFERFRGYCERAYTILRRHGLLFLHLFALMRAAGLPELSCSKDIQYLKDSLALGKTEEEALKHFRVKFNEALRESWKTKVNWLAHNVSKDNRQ
PI3Kdelta, sequence (P27986 whole entry partner, canonical isoform): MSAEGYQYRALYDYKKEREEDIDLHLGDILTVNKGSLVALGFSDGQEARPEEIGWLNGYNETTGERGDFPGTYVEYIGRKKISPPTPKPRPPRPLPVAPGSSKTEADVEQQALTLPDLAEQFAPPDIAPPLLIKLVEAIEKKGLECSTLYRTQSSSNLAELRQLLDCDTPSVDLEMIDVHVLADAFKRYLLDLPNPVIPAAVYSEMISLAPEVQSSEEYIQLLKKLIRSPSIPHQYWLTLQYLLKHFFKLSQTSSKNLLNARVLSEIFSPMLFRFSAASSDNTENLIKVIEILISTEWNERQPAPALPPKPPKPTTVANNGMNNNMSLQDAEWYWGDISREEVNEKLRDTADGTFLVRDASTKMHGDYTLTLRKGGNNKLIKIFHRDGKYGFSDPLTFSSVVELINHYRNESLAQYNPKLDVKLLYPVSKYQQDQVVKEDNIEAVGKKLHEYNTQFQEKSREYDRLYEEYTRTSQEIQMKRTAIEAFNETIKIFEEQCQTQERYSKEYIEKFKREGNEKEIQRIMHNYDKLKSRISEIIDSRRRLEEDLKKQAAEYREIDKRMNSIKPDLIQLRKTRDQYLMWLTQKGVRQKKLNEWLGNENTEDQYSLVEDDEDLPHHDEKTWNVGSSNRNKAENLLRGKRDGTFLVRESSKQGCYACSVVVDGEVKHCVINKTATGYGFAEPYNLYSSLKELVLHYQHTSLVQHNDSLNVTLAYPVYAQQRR
PI3Kalpha, sequence (P42336 whole entry, the tested form may be a part, canonical isoform): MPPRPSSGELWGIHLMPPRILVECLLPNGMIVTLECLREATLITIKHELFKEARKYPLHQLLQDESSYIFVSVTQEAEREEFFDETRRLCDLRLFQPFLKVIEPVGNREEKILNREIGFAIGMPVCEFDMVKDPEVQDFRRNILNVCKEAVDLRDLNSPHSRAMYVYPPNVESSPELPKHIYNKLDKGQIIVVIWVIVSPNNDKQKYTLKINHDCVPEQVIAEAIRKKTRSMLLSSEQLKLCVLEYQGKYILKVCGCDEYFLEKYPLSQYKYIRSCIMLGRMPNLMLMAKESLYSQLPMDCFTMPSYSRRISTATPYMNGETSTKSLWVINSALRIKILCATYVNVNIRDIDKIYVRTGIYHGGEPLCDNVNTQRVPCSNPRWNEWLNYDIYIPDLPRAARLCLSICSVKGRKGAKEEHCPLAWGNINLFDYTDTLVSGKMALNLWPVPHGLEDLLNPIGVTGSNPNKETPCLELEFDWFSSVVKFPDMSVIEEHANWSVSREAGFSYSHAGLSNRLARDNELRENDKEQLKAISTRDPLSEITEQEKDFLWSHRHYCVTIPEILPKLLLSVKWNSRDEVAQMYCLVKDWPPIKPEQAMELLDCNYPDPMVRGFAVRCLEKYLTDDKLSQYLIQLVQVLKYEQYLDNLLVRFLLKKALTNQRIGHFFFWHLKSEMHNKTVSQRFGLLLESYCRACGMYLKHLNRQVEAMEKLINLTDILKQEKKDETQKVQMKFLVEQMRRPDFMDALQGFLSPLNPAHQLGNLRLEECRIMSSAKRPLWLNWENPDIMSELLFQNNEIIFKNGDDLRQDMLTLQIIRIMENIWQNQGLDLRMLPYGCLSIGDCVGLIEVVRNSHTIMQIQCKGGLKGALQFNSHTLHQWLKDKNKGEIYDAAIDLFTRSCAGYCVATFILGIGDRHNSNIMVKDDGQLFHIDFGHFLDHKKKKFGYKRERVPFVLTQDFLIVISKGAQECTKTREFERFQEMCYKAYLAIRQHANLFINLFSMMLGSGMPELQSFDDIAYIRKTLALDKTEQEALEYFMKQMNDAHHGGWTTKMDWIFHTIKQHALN
PI3Kalpha, sequence (P27986 whole entry partner, the tested form may be a part, canonical isoform): as the sequence (P27986 whole entry partner, canonical isoform) above

`CCC(Oc1ncnc2c1nc(-c1cnn(CC)c1C)n2C)C(=O)N1CCCCC1` (racemic) [Compound 1-2, (R and S)-8-(1-ethyl-5-methyl-1H-pyrazol-4-yl)-9-methyl-6-[1-(piperidin-1-ylcarbonyl)propoxy]-9H-purine]: at PI3Kdelta, half-maximal inhibition (IC50) required 240 nM. Moreover, the “Selectivity versus PI3Kalpha” value at PI3Kalpha is listed as more than 10.

As to `CCn1c(-c2cnc(C)nc2)nc2c(NCC3(C(=O)N4C[C@@H](C)O[C@@H](C)C4)CC3)ncnc21` [Compound 2-57, N-[(1-{[(cis)-2,6-dimethylmorpholin-4-yl]carbonyl}cyclopropyl)methyl]-9-ethyl-8-(2-methylpyrimidin-5-yl)-9H-purin-6-amine], the IC50 (as a rule, the midpoint of a concentration-inhibition curve) at PI3Kdelta is 24 nM. The “Selectivity versus PI3Kalpha” value on PI3Kalpha is given as more than 10.

At PI3Kdelta, `CCn1c(-c2cnc(C)nc2)nc2c(NC[C@@H](C)C(=O)N3C[C@@H](C)O[C@@H](C)C3)ncnc21` [Compound 2-55, N-{(2R)-3-[(cis)-2,6-dimethylmorpholin-4-yl]-2-methyl-3-oxopropyl}-9-ethyl-8-(2-methylpyrimidin-5-yl)-9H-purin-6-amine] gave an IC50 of 20 nM. The “Selectivity versus PI3Kalpha” value on PI3Kalpha was more than 10.

On PI3Kdelta, `CC[C@H](Nc1ncnc2c1nc(-c1cnc(C)nc1)n2CC)C(=O)N1CCC(C)C1` (mixture of isomers) [Compound 2-18, 9-ethyl-8-(2-methylpyrimidin-5-yl)-N-{(1S)-1-[((S and R)-3-methylpyrrolidin-1-yl)carbonyl]propyl}-9H-purin-6-amine] had an IC50 of 31 nM. Also, the “Selectivity versus PI3Kalpha” value at PI3Kalpha is listed as more than 10.

Consider `CC[C@H](Nc1ncnc2c1nc(-c1cnc(C)nc1)n2CC)C(=O)N1CC[C@@H]2CCCC[C@@H]2C1` [Compound 2-20, 9-ethyl-8-(2-methylpyrimidin-5-yl)-N-{(1S)-1-[(cis)-octahydroisoquinolin-2(1H)-ylcarbonyl]propyl}-9H-purin-6-amine], for which the IC50 at PI3Kdelta turned out to be 14 nM. Also, the “Selectivity versus PI3Kalpha” value on PI3Kalpha is reported as more than 10.

Take `CC[C@H](Nc1ncnc2c1nc(-c1cnc(C)nc1)n2CC)C(=O)N1C[C@@H](C)N(C(C)=O)[C@@H](C)C1` [Compound 4-2, N-[(1S)-1-{[cis-4-acetyl-3,5-dimethylpiperazin-1-yl]carbonyl}propyl]-9-ethyl-8-(2-methylpyrimidin-5-yl)-9H-purin-6-amine]: the IC50 against PI3Kdelta turned out to be 21 nM. For the same compound, the “Selectivity versus PI3Kalpha” value at PI3Kalpha was more than 10.

`CCn1ncc(-c2nc3c(N[C@@H](Cc4ccccc4)C(=O)N4CCOCC4)ncnc3n2C)c1C` [Compound 2-2, N-[(1S)-1-benzyl-2-morpholin-4-yl-2-oxoethyl]-8-(1-ethyl-5-methyl-1H-pyrazol-4-yl)-9-methyl-9H-purin-6-amine]: at PI3Kdelta, the IC50 stood at 59 nM. The “Selectivity versus PI3Kalpha” value at PI3Kalpha is more than 10.

As for `CC[C@H](Nc1ccnc2c1nc(-c1ccc(C(F)(F)F)nc1)n2CC)C(=O)N1C[C@@H](C)O[C@@H](C)C1` [Compound 3-2, N-[(1S)-1-{[(cis)-2,6-dimethylmorpholin-4-yl]carbonyl}propyl]-3-ethyl-2-[6-(trifluoromethyl)pyridin-3-yl]-3H-imidazo[4,5-b]pyridin-7-amine], half-maximal inhibition on PI3Kdelta (IC50) required 6.2 nM. Moreover, the “Selectivity versus PI3Kalpha” value at PI3Kalpha was more than 10.

Regarding `CC[C@H](Nc1ncnc2c1nc(C(F)F)n2CC)C(=O)N1C[C@@H](C)O[C@@H](C)C1` [Compound 2-4, 8-(difluoromethyl)-N-[(1S)-1-{[(cis)-2,6-dimethylmorpholin-4-yl]carbonyl}propyl]-9-ethyl-9H-purin-6-amine], the IC50 on PI3Kdelta stood at 99 nM. At PI3Kalpha, the “Selectivity versus PI3Kalpha” value was more than 10.
